Laboratory results as given in publication PMC2443190, “Novel Intermolecular Iterative Mechanism for Biosynthesis of Mycoketide Catalyzed by a Bimodular Polyketide Synthase” (PLoS Biology, 2008).

Key:
PKS12 [1] = target: T1, PKS12 (Mycobacterium tuberculosis, UniProt I6XD69)
PKS12 [2] = target: T1, PKS12; remark: listed apart in the source

T1 sequence (I6XD69 whole entry): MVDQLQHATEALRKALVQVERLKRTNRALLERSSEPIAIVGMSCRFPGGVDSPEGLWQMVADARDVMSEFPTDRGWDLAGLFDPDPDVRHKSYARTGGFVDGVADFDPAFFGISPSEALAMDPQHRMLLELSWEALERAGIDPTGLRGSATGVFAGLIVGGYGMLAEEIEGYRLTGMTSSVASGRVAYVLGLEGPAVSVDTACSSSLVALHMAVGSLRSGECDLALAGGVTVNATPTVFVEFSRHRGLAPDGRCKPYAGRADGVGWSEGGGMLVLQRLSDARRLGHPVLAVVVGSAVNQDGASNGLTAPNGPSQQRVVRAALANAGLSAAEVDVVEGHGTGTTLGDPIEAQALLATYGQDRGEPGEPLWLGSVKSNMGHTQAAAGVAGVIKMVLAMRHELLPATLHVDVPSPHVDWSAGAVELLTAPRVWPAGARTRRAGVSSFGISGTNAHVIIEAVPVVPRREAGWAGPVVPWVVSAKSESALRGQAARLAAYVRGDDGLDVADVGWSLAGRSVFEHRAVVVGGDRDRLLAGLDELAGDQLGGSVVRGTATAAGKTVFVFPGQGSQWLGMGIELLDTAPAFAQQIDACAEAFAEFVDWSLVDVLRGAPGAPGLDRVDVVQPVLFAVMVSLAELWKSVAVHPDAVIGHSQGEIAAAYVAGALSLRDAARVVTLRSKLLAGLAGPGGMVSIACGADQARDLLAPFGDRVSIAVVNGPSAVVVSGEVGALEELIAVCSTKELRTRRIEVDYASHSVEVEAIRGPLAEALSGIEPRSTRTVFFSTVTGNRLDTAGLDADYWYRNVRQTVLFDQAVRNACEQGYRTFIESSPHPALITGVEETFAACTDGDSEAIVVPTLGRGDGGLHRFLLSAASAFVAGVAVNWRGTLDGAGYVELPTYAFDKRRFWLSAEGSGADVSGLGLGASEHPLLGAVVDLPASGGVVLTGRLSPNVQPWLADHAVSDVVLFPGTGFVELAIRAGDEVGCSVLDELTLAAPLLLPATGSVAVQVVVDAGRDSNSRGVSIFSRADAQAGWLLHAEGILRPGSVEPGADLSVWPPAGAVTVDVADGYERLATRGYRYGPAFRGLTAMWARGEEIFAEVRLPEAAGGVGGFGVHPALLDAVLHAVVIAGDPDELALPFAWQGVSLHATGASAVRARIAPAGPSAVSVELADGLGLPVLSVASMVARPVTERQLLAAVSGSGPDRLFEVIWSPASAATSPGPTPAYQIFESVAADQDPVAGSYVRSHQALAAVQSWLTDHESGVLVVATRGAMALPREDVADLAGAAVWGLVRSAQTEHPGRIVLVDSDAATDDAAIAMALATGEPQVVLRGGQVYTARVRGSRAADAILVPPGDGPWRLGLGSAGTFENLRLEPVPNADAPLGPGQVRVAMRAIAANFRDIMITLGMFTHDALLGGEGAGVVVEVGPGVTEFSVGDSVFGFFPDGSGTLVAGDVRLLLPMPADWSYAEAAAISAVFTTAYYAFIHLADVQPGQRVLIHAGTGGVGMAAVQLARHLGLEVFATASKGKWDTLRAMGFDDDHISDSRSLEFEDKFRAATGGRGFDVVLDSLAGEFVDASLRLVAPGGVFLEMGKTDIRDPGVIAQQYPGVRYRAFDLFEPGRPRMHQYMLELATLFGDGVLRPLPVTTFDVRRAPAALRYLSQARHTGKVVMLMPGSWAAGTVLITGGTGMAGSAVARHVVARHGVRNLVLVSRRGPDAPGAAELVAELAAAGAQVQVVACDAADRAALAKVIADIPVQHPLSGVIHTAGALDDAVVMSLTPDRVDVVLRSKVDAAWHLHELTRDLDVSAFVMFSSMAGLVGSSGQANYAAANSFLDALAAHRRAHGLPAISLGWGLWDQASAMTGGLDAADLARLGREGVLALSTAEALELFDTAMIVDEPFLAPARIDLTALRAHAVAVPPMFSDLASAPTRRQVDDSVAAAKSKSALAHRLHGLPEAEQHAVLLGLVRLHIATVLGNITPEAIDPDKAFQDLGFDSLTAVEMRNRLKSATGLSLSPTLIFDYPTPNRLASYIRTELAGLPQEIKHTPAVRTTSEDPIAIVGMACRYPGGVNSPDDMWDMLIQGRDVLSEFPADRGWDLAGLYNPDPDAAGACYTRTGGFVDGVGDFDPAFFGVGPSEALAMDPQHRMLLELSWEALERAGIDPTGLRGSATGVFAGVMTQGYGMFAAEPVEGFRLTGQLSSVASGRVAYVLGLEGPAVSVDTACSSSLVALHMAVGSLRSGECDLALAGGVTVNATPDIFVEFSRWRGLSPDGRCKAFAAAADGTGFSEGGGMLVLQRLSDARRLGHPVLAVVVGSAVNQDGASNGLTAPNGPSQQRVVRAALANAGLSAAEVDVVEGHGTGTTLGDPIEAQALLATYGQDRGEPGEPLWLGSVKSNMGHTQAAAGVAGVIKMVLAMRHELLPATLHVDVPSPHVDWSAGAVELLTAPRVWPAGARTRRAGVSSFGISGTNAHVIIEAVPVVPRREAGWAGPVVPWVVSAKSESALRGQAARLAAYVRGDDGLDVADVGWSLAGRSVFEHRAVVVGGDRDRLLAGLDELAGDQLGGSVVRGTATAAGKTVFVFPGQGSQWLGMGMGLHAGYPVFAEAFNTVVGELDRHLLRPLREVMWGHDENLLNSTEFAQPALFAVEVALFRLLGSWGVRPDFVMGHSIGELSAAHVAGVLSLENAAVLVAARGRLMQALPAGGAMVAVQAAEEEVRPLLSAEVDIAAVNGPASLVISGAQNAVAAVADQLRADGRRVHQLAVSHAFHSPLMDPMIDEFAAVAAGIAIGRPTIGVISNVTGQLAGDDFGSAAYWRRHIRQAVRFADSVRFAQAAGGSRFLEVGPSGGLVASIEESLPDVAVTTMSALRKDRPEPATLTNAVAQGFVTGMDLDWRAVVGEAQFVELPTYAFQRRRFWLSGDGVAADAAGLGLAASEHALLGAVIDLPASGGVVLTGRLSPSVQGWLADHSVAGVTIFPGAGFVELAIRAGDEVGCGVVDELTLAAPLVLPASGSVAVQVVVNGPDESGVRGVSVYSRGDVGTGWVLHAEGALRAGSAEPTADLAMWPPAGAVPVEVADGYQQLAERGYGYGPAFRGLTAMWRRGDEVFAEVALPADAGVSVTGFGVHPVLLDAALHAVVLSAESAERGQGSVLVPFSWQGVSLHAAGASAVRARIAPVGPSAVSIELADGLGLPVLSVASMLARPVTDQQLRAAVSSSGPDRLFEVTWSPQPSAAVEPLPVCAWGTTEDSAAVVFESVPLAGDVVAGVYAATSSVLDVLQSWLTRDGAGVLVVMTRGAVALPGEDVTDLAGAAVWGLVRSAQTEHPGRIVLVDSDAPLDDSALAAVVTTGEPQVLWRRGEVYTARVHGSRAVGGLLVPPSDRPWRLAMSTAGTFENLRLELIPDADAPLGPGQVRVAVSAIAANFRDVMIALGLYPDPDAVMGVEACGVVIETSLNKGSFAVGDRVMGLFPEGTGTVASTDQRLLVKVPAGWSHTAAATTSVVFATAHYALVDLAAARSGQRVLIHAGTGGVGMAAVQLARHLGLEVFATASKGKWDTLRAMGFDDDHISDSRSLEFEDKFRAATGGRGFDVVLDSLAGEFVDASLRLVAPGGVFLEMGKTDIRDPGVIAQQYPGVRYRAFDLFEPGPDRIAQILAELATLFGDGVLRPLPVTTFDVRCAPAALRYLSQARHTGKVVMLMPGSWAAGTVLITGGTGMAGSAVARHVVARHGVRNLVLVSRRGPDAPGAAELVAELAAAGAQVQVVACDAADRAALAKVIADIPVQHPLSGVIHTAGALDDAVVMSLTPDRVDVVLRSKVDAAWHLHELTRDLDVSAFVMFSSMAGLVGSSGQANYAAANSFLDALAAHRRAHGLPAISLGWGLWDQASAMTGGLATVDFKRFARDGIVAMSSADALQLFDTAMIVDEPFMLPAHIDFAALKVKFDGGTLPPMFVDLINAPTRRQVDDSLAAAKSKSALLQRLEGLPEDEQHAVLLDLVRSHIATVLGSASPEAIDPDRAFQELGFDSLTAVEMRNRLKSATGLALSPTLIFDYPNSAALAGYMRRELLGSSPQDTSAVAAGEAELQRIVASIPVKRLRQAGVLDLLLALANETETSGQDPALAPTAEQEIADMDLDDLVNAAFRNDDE

Row | Compound | 14C labelling of protein, SDS-PAGE phosphorimaging (PKS12 [1]) | inhibition at 100 μM (PKS12 [2])
1 | CC(C)(COP(=O)(O)OP(=O)(O)OC[C@H]1O[C@@H](n2cnc3c(N)ncnc32)[C@H](O)[C@@H]1OP(=O)(O)O)[C@@H](O)C(=O)NCCC(=O)NCCSC(=O)CC(=O)O [malonyl CoA] | SDS-PAGE gel-binding assays clearly showed that PKS12 could be radiolabeled with both of these substrates | 
2 | CC(C(=O)O)C(=O)SCCNC(=O)CCNC(=O)[C@H](O)C(C)(C)COP(=O)(O)OP(=O)(O)OC[C@H]1O[C@@H](n2cnc3c(N)ncnc32)[C@H](O)[C@@H]1OP(=O)(O)O (stereo partly drawn) [methylmalonyl CoA] | SDS-PAGE gel-binding assays clearly showed that PKS12 could be radiolabeled with both of these substrates | 
3 | C/C=C/C/C=C/CCC(=O)[C@H]1O[C@H]1C(N)=O [cerulenin] |  | incubation of PKS12 protein with KS inhibitor cerulenin showed no radioactive bands
